The subject of the assay is RAW264.7. Description: Antiinflammatory activity in mouse RAW264.7 cells assessed as inhibition of LPS-induced NO production compound pretreated for 1 hr followed by addition of 100 ng/ml LPS for 24 hrs by griess method. The format is functional, cell-based.
Turning to `COC(=O)c1c(O)c2ccccc2c2ncccc12`, the half-inhibitory concentration (IC50) is greater than 50 µM.
Still for that read-out and setting: in the case of `COC(=O)C1=C2C=CC(C)(C)OC2(O)c2ccccc2C1=O` (stereo unspecified) it was 1.3 µM; in that of `COC(=O)c1c(O)c2ccccc2c2nc(C)ccc12`, greater than 50 µM; in that of `CNC(=N)NCCC[C@H](N)C(=O)O` [TILARGININE], 73.3 µM.
`COC(=O)C1=C2C=CC(C)(C)N=C2c2ccccc2C1=O`: the 50% inhibitory concentration (IC50) stood at 0.34 µM and the inhibition entry was “Dose-dependent effect”.

The term IC50 denotes the concentration at which inhibition is half-maximal.
